pIC50: −log10 of the molar value.
Tested on: 138582-337-R-J1-PDC complex spheroid viability
Experiment: Anticancer human tumor 138582-337-R-J1-PDC patient-derived Merkel cell tumor cell line growth inhibition
Details: for pIC50: curve of first compound; for viability, T/C: stronger effect = lower value
From the text: Multicellular complex tumor spheroid response to LSD1 Inhibitor Iadademstat in combination with a variety of drugs and investigational agents in selected tumor cell lines
The current study was undertaken to assess response to LSD1 inhibitors in combination with standard-of-care drugs and investigational agents in solid tumor complex spheroid models as well as in the K-562 leukemia. Complex spheroids include a stromal component modeled by human endothelial cells (HUVEC) and fibroblasts modeled by human mesenchymal stem cells (MSCs). The concentration ranges selected for each drug and investigational agent were based upon clinically achievable concentrations if the clinical Cmax of the agent was known.
Compounds. The drugs and investigational agents used in this study are listed on Table 1. All of the agents used, including staurosporine (NSC755774) and gemcitabine (NSC613327), were obtained from the Developmental Therapeutics Program, NCI. FDA-approved anticancer drugs are available from the NCI at http://dtp.nci.nih.gov/branches/dscb/oncology_drugset_explanation.html. Drugs and investigational agents were >95% pure by proton nuclear magnetic resonance (NMR) and liquid chromatography/mass spectrometry (LC/MS). Stock solutions were prepared at 400x in DMSO, stored at -70 degrees C, and diluted in fresh medium prior to their use. The final concentration of DMSO in cell culture wells never exceeded 0.25% (v/v). The FDA-approved anticancer drug set is available from the Developmental Therapeutics Program at https://dtp.cancer.gov/organization/dscb/obtaining/available_plates.htm. All drugs and investigational agents were tested over a range starting from a high concentration at or near the clinical Cmax and decreasing in half-log increments. If the clinical Cmax for an agent had not been determined, the highest concentration tested was 10 microM.
Cell Lines. The patient-derived cancer cell (PDC) lines: 292921-168-R-J2-PDC, K24384-001-R-PDC, and 521955-158-R2-J5-PDC pancreatic carcinomas, 556581-035-R-J1 ovarian carcinoma, 324938-238-R-J1-PDC, 855422-203-R-J1-PDC and 883617-216-R-J1-PDC urothelial bladder carcinomas, 743489-274-T-PDC renal cell carcinoma, 138582-R-J1 Merkel cell tumor, K60290-347-R-J1 and K57222-313-R-J1-PDC glioblastomas, 653999-131-R-J2-PDC, LG0703-F948-PDC, and 349418-098-R-PDC non-small cell lung carcinomas, 885512-296-R-J2-PDC, 171881-019-R-J1-PDC breast carcinomas and 186277-243-T-J2-PDC and 233499-124-R-J2-PDC colon carcinomas were obtained from the NCI Patient-Derived Models Repository (PDMR, https://pdmr.cancer.gov). The established cell lines NCI/ADR-RES (RRID:CVCL_14520 and OVCAR-5 (RRID:CVCL_1628) ovarian carcinomas, 786-O (RRID:CVCL_1051) and A498 (RRID:CVCL_A498) renal cell carcinoma, NCI-H211 (ATCC, cat. CRL-5824; RRID:CVCL_1529), NCI-H196 (ATCC, cat. CRL-5823, RRID:CVCL_1509), SW 1271 (ATCC, cat. CRL-2177, RRID:CVCL_1716) and NCI-H1876 (ATCC, cat. CRL-5902, RRID:CVCL_1503) small cell lung carcinomas, MDA-MB-231 (RRID:CVCL_0062) and MDA-MB-468 (RRID:CVCL_0419)breast carcinomas (10-12). Pooled donor human umbilical vein endothelial cells (HUVEC, Lonza, cat. CC-2519) and human mesenchymal stem cells (hMSC, Lonza, cat. PT-2501) were purchased from Lonza (Walkersville, MD).
Cell Culture. All cells were maintained in an incubator at 37 degrees C and 5% CO2 with 95% humidity. The PDC lines were cultured according to standard operating procedures established by the NCI PDMR (https://pdmr.cancer.gov). Briefly all PDCs were thawed and cultured in Matrigel-coated flasks prepared with a working solution of 1X Ham's F-12 nutrient mix, without supplementation (Invitrogen, Waltham, MA, cat. 11765054), 100 U/mL penicillin-streptomycin (Invitrogen, cat. 15140122), and 2.5% Matrigel (Corning Inc., Corning, NY, cat. 354248) for the first three passages. […]
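Further: spheroids exposed to agents for 7 days.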
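Wherever viability, T/C is given: 100% = DMSO vehicle control viability.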

CC[C@@]1(O)C(=O)OCc2c1cc1n(c2=O)Cc2cc3c(CN(C)C)c(O)ccc3nc2-1 + NC1CC1c1ccc(-c2cccc(O)c2)cc1
pIC50 (second compound 0.1 µM): < 7.00 | pIC50 (second compound 0.316 µM): < 7.00 | pIC50 (second compound 1 µM): < 7.00 | pIC50 (second compound 3.16 µM): < 7.00 | pIC50 (second compound 10 µM): < 7.00 | viability, T/C (second compound 0.1 µM, first compound 0.000316 µM): 70.6% | viability, T/C (second compound 0.1 µM, first compound 0.001 µM): 71.1% | viability, T/C (second compound 0.1 µM, first compound 0.00316 µM): 63.5% | viability, T/C (second compound 0.1 µM, first compound 0.01 µM): 80% | viability, T/C (second compound 0.1 µM, first compound 0.0316 µM): 68.5% | viability, T/C (second compound 0.1 µM, first compound 0.1 µM): 76.8% | viability, T/C (second compound 0.316 µM, first compound 0.000316 µM): 80.2% | viability, T/C (second compound 0.316 µM, first compound 0.001 µM): 70.7% | viability, T/C (second compound 0.316 µM, first compound 0.00316 µM): 73.2% | viability, T/C (second compound 0.316 µM, first compound 0.01 µM): 68.5% | viability, T/C (second compound 0.316 µM, first compound 0.0316 µM): 66.6% | viability, T/C (second compound 0.316 µM, first compound 0.1 µM): 75.9% | viability, T/C (second compound 1 µM, first compound 0.000316 µM): 70.8% | viability, T/C (second compound 1 µM, first compound 0.001 µM): 70.7% | viability, T/C (second compound 1 µM, first compound 0.00316 µM): 80.2% | viability, T/C (second compound 1 µM, first compound 0.01 µM): 71.1% | viability, T/C (second compound 1 µM, first compound 0.0316 µM): 61.3% | viability, T/C (second compound 1 µM, first compound 0.1 µM): 74.3% | viability, T/C (second compound 3.16 µM, first compound 0.000316 µM): 75.6% | viability, T/C (second compound 3.16 µM, first compound 0.001 µM): 74.8% | viability, T/C (second compound 3.16 µM, first compound 0.00316 µM): 85.6% | viability, T/C (second compound 3.16 µM, first compound 0.01 µM): 81.8% | viability, T/C (second compound 3.16 µM, first compound 0.0316 µM): 66.4% | viability, T/C (second compound 3.16 µM, first compound 0.1 µM): 66.4% | viability, T/C (second compound 10 µM, first compound 0.000316 µM): 82.8% | viability, T/C (second compound 10 µM, first compound 0.001 µM): 81.2% | viability, T/C (second compound 10 µM, first compound 0.00316 µM): 100% | viability, T/C (second compound 10 µM, first compound 0.01 µM): 90.3% | viability, T/C (second compound 10 µM, first compound 0.0316 µM): 77.3% | viability, T/C (second compound 10 µM, first compound 0.1 µM): 67.8%
